# According to patent publication US20160318928A1, “TRICYCLIC COMPOUNDS AS ANTICANCER AGENTS” (BRISTOL-MYERS SQUIBB COMPANY, priority 2013, published 2016):
# Target: BRD4 (Homo sapiens, UniProt O60885)
# Experiment: Time resolved fluorescence resonance energy transfer (TR-FRET) binding assay, BRD4 bromodomain
# Conditions: one of the FRET assays described
row,SMILES,IC50
1,"Cc1nnn(C)c1-c1cnc2c3ccc(S(C)(=N)=O)cc3n([C@H](c3ccccc3)C3CCOCC3)c2c1 (single isomer, unassigned) [Example 371]",< 5 nM
2,"Cc1nnn(C)c1-c1cnc2c3ccc(S(C)(=N)=O)cc3n([C@H](c3ccccc3)C3CCOCC3)c2c1 (single isomer, unassigned) [Example 372]",< 5 nM
3,"COCC(C1CCOCC1)n1c2cc(C(C)(C)O)ccc2c2ncc(-c3c(C)nnn3C)cc21 (single isomer, unassigned) [Example 396]",< 5 nM
4,"COCC(C1CCOCC1)n1c2cc(C(C)(C)O)ccc2c2ncc(-c3c(C)nnn3C)cc21 (single isomer, unassigned) [Example 397]",< 25 nM
5,"[2H]C([2H])([2H])c1nnn(C)c1-c1cnc2c3cc(F)c(C(C)(C)O)cc3n(C(c3ncccc3F)C3CCOCC3)c2c1 (single isomer, unassigned) [Example 459]",< 5 nM
6,Cc1noc(C)c1-c1cnc2c3ccc(C(C)(C)O)cc3n(C(c3ccccc3)c3ccccc3)c2c1 [Example 3],< 5 nM
7,CCCC(CCC)n1c2cc(C(C)(C)O)ccc2c2ncc(-c3c(C)noc3C)cc21 [Example 8],< 5 nM
8,Cc1nnn(C)c1-c1cnc2c3ccc(C(C)(C)O)cc3n(C(CCC(F)(F)F)CCC(F)(F)F)c2c1 [Example 56],< 5 nM
9,Cc1nnn(C)c1-c1cnc2c3ccc(C(C)(C)O)cc3n([C@H](c3ccc(F)cc3)C3CCOCC3)c2c1 [Example 59],< 5 nM
10,Cc1nnn(C)c1-c1cnc2c3ccc(C(C)(C)O)cc3n([C@@H](c3ccc(F)cc3)C3CCOCC3)c2c1 [Example 60],< 5 nM
11,CCCC(CCC)n1c2cc(C(C)(C)O)ccc2c2ncc(-c3c(C)nnn3C)cc21 [Example 61],< 5 nM
12,Cc1nnn(C)c1-c1cnc2c3ccc(C(C)(C)O)cc3n([C@@H](c3ccc(F)cc3)C3CCOCC3)c2c1 [Example 73],< 5 nM
13,Cc1nnn(C)c1-c1cnc2c3ccc(C(C)(C)O)c(F)c3n(C(CCC(F)(F)F)CCC(F)(F)F)c2c1 [Example 74],< 25 nM
14,CCCC(CCC)n1c2cc(-c3c(C)nnn3C)cnc2c2ccc(C(C)(C)O)c(F)c21 [Example 75],< 5 nM
15,CCCC(CCC)n1c2cc(-c3c(C)noc3C)cnc2c2ccc(C(C)(C)O)c(F)c21 [Example 82],< 25 nM
16,Cc1noc(C)c1-c1cnc2c3ccc(C(C)(C)O)c(F)c3n(C(CCC(F)(F)F)CCC(F)(F)F)c2c1 [Example 83],< 25 nM

row,SMILES,IC50
1,CCS(=O)(=O)Nc1ccc(S(C)(=O)=O)c2c1c1ncc(-c3c(C)nnn3C)cc1n2[C@H](c1ccccc1)C1CCOCC1 [Example 217],< 5 nM
2,Cc1nnn(C)c1-c1cnc2c3c(NS(=O)(=O)C4CC4)ccc(S(C)(=O)=O)c3n(C(c3ccccc3)C3CCOCC3)c2c1 (centres unmarked) [Example 218],< 5 nM
3,Cc1nnn(C)c1-c1cnc2c3c(NS(=O)(=O)CC4CC4)ccc(S(C)(=O)=O)c3n([C@H](c3ccccc3)C3CCOCC3)c2c1 [Example 219],< 5 nM
4,[2H]C([2H])([2H])c1nnn(C)c1-c1cnc2c3c(NS(=O)(=O)CC)ccc(S(C)(=O)=O)c3n(C(c3ccccc3)C3CCOCC3)c2c1 (centres unmarked) [Example 223],< 25 nM
5,[2H]C([2H])([2H])c1nnn(C)c1-c1cnc2c3ccc(S(C)(=O)=O)cc3n(C(c3ccc(F)cc3)C3CCOCC3)c2c1 (centres unmarked) [Example 265],< 5 nM
6,[2H]C([2H])([2H])c1nnn(C)c1-c1cnc2c3ccc(C(C)(C)O)cc3n(C(c3ccccc3F)C3CCOCC3)c2c1 (centres unmarked) [Example 266],< 5 nM
7,[2H]C([2H])([2H])c1nnn(C)c1-c1cnc2c3c(S(C)(=O)=O)cccc3n(C(c3ccc(F)cc3)C3CCOCC3)c2c1 (centres unmarked) [Example 270],< 5 nM
8,[2H]C([2H])([2H])c1nnn(C)c1-c1cnc2c3ccc(C(C)(C)O)c(F)c3n([C@H](c3ccccc3F)C3CCCOC3)c2c1 (some centres unmarked) [Example 272],< 5 nM
9,[2H]C([2H])([2H])c1nnn(C)c1-c1cnc2c3c(OC)cc(C(C)(C)O)cc3n(C(c3ccc(F)cc3)C3CCOCC3)c2c1 (centres unmarked) [Example 275],< 5 nM
10,COc1cccnc1C(C1CCOCC1)n1c2cc(C(C)(C)O)ccc2c2ncc(-c3c(C)nnn3C)cc21 (centres unmarked) [Example 291],< 5 nM
11,"Cc1nnn(C)c1-c1cnc2c3ccc(CN(C)C)cc3n([C@H](c3ccccc3)C3CCOCC3)c2c1 [Example 406, {[3-(Dimethyl-1H-1,2,3-triazol-5-yl)-5-[(S)-oxan-4-yl(phenyl)methyl]-5H-pyrido[3,2-b]indol-7-yl]methyl}dimethylamine]",< 5 nM
12,"Cc1nnn(C)c1-c1cnc2c3cc(C(=O)N4CC(F)(F)C4)ccc3n([C@H](c3ccccc3)C3CCOCC3)c2c1 [Example 428, 5-[8-(3,3-Difluoroazetidine-1-carbonyl)-5-[(S)-oxan-4-yl(phenyl)methyl]-5H-pyrido[3,2-b]indol-3-yl]-1,4-dimethyl-1H-1,2,3-triazole]",< 5 nM
13,"Cc1nnn(C)c1-c1cnc2c3cc(C(=O)N4CC(O)C4)ccc3n([C@H](c3ccccc3)C3CCOCC3)c2c1 [Example 429, 1-[3-(Dimethyl-1H-1,2,3-triazol-5-yl)-5-[(S)-oxan-4-yl(phenyl)methyl]-5H-pyrido[3,2-b]indole-8-cabonyl]azetidine-3-ol]",< 5 nM
14,"Cc1nnn(C)c1-c1cnc2c3cc(C(=O)N4CC(F)C4)ccc3n([C@H](c3ccccc3)C3CCOCC3)c2c1 [Example 430, 5-[8-(3-Fluoroazetidine-1-carbonyl)-5-[(S)-oxan-4-yl(phenyl)methyl]-5H-pyrido[3,2-b]indol-3-yl]-1,4-dimethyl-1H-1,2,3-triazole]",< 5 nM
15,"Cc1nnn(C)c1-c1cnc2c3cc(F)c(C(C)(C)O)c(F)c3n([C@H](c3ccccc3)C3CCOCC3)c2c1 [Example 451, 2-[3-(Dimethyl-1H-1,2,3-triazol-5-yl)-6,8-difluoro-5-[(S)-oxan-4-yl(phenyl)methyl]-5H-pyrido[3,2-b]indol-7-yl]propan-2-ol]",< 5 nM

# System: JJN3R multiple myeloma cell line
# Experiment: Human tumor xenograft model in mice, JJN3R
# Type: in vivo
# Conditions: Mus musculus, JJN-3R, po, 1 mg/kg, QDx7, read-out: % TGI
# Description: Human Tumor Xenograft Models in Mice
# All rodents were obtained from Jackson Laboratory. (Bar Harbor, Me.), and maintained in an ammonia-free environment in a defined and pathogen-free colony. All mice were quarantined approximately 1 week prior to their use for tumor propagation and drug efficacy testing. Mice were fed food and water ad libitum. The animal care program of Bristol-Myers Squibb Pharmaceutical Research Institute is fully accredited by the American Association for Accreditation of Laboratory Animal Care (AAALAC). All experiments were performed in accordance with Bristol-Myers Squibb (BMS) animal test methods and guidelines.
# Tumor xenografts were grown and maintained subcutaneously (SC) in NSG (NOD scid IL2 receptor gamma chain knockout) mice (Jackson Lab). Tumors were propagated as subcutaneous transplants using tumor fragments obtained from donor mice.
# Preclinical Chemotherapy Trials
# The required numbers of animals needed to detect a meaningful response were pooled at the start of the experiment and each was given bilateral subcutaneous implants of two tumor fragments (˜20 mg) with a 13-gauge trocar. Tumors were allowed to grow to the pre-determined size window (tumors outside the range were excluded) and animals were evenly distributed to various treatment and control groups. There were typically 6-8 mice per treatment and control groups, consisting of 10-12 tumors. Treatment of each animal was based on individual body weight. Treated animals were checked daily for treatment related toxicity/mortality. Each group of animals was weighed before the initiation of treatment (WO and then again following the last treatment dose (Wt2). The difference in body weight (Wt2-Wt1) provides a measure of treatment-related toxicity.
# Tumor response was determined by measurement of tumors with a caliper twice a week, until the tumors reached a predetermined “target” size of 0.5 gm or 1 gm depending on the tumor type. Tumor weights (mg) were estimated from the formula:
# Tumor weight=(length×width^2)÷2
# Tumor response criteria are expressed in terms of tumor growth inhibition (% TGI). Tumor growth delay is defined as the difference in time (days) required for the treated tumors (T) to reach a predetermined target size compared to those of the control group (C). For this purpose, the tumor weight of a group is expressed as medium tumor weight (MTW).
# Tumor growth inhibition is calculated as follows:
# where, Ct=Median control tumor size at end of treatment C0=Median control tumor size at treatment initiation Tt=Median tumor size of treated group at end of treatment T0=Median tumor size of treated group at treatment initiation
# Tumor response was also expressed in terms of tumor growth delay and expressed as log cell kill (LCK value), defined as the difference in time (days) required for the treated tumors (T) to reach a predetermined target size compared to those of the control group (C).
# Whenever possible, antitumor activity was determined at a range of dose levels up to the maximum tolerated dose (MTD) which is defined as the dose level immediately […] which excessive toxicity (i.e. more than one death) occurred. When death occurred, the day of death was recorded. Treated mice dying prior to having their tumors reach target size were considered to have died from drug toxicity. No control mice died bearing tumors less than target size. Treatment groups with more than one death caused by drug toxicity were considered to have had excessively toxic treatments and their data were not included in the evaluation of a compound's antitumor efficacy.
# For administration of BET inhibitors to rodents, compounds were dissolved in […]/10% TPGS/10% Ethanol. BET inhibitors were typically administered orally on a schedule of QDx7 or QDx10 (5 day-on-2 day-off), although other schedules had also been evaluated and shown to be efficacious
row,SMILES,inhibition in vivo at 1 mg/kg
1,"Cc1nnn(C)c1-c1cnc2c3ccc([C@](C)(O)C4CC4)c(F)c3n([C@H](c3ccccc3)C3CCOCC3)c2c1 (single isomer, unassigned) [Example 432]",51%
2,"Cc1nnn(C)c1-c1cnc2c3ccc(C(C)(O)C4CC4)c(F)c3n([C@H](c3ccccc3F)C3CCOCC3)c2c1 (single isomer, unassigned) [Example 436]",71%
3,"[2H]C([2H])([2H])c1nnn(C)c1-c1cnc2c3ccc(S(C)(=O)=O)cc3n([C@H](c3ccccc3)C3CCOCC3)c2c1 [Example 263, 5-{7-Methanesulfonyl-5-[(S)-oxan-4-yl(phenyl)methyl]-5H-pyrido[3,2-b]indol-3-yl}-4-(^2H3)methyl-1-methyl-1H-1,2,3-triazole]",6%
4,"[2H]C([2H])([2H])c1nnn(C)c1-c1cnc2c3cc(F)c(C(C)(C)O)cc3n([C@H](c3ccccc3F)C3CCOCC3)c2c1 [Example 276, 2-{8-Fluoro-5-[(S)-(2-fluorophenyl)(oxan-4-yl)methyl]-3-[4-(^2H3)methyl-1-methyl-1H-1,2,3-triazol-5-yl]-5H-pyrido[3,2-b]indol-7-yl}propan-2-ol]",56%
5,"[2H]C([2H])([2H])c1nnn(C)c1-c1cnc2c3ccc(C(C)(C)O)c(F)c3n([C@H](c3ccccc3)C3CCOCC3)c2c1 [Example 278, 2-{6-Fluoro-3-[4-(^2H3)methyl-1-methyl-1H-1,2,3-triazol-5-yl]-5-[(S)-oxan-4-yl(phenyl)methyl]-5H-pyrido[3,2-b]indol-7-yl}propan-2-ol]",103%

# Same assay, conditions: Mus musculus, JJN-3R, po, 4 mg/kg, QDx7, read-out: % TGI
row,SMILES,inhibition in vivo at 4 mg/kg
1,"Cc1nnn(C)c1-c1cnc2c3ccc([C@](C)(O)C4CC4)c(F)c3n([C@H](c3ccccc3)C3CCOCC3)c2c1 (single isomer, unassigned) [Example 432]",102%
2,"Cc1nnn(C)c1-c1cnc2c3ccc(C(C)(O)C4CC4)c(F)c3n([C@H](c3ccccc3F)C3CCOCC3)c2c1 (single isomer, unassigned) [Example 436]",116%
3,"[2H]C([2H])([2H])c1nnn(C)c1-c1cnc2c3ccc(S(C)(=O)=O)cc3n([C@H](c3ccccc3)C3CCOCC3)c2c1 [Example 263, 5-{7-Methanesulfonyl-5-[(S)-oxan-4-yl(phenyl)methyl]-5H-pyrido[3,2-b]indol-3-yl}-4-(^2H3)methyl-1-methyl-1H-1,2,3-triazole]",52%
4,"[2H]C([2H])([2H])c1nnn(C)c1-c1cnc2c3cc(F)c(C(C)(C)O)cc3n([C@H](c3ccccc3F)C3CCOCC3)c2c1 [Example 276, 2-{8-Fluoro-5-[(S)-(2-fluorophenyl)(oxan-4-yl)methyl]-3-[4-(^2H3)methyl-1-methyl-1H-1,2,3-triazol-5-yl]-5H-pyrido[3,2-b]indol-7-yl}propan-2-ol]",95%
5,"[2H]C([2H])([2H])c1nnn(C)c1-c1cnc2c3ccc(C(C)(C)O)c(F)c3n([C@H](c3ccccc3)C3CCOCC3)c2c1 [Example 278, 2-{6-Fluoro-3-[4-(^2H3)methyl-1-methyl-1H-1,2,3-triazol-5-yl]-5-[(S)-oxan-4-yl(phenyl)methyl]-5H-pyrido[3,2-b]indol-7-yl}propan-2-ol]",110%
